Patent publication US10519152B2, “Compounds and their use in treating cancer” (AstraZeneca AB, priority 2017, dated 2019)

Tests used:
[1] = biological target: T1, recombinant human Estrogen Receptor alpha ligand binding domain, residues 307-554 (ER alpha-LBD (GST)) (Homo sapiens, UniProt P03372); assay: ERα binding assay (LanthaScreen TR-FRET competition); details: TR-FRET competition with Fluormone ES2 tracer, 4 hours at room temperature; single experiment or average of two or more
T1 construct: made in house
T1 sequence (P03372 307-554): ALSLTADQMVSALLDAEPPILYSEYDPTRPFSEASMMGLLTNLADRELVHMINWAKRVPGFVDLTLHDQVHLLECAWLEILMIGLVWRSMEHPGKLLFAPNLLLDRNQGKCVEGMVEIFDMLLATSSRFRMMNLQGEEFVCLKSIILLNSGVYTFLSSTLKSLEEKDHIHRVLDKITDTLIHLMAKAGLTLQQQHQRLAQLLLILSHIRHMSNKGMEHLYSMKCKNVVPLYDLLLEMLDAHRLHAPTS

[2] = biological target: T2, Estrogen Receptor (ERα) in MCF-7 human ductal carcinoma breast cell line (Homo sapiens, UniProt P03372); assay: MCF-7 ER degradation assay (cell based immuno-fluorescence); details: MCF-7 cells; for DC50: 18-22 hours incubation, 50% reduction of ERα expression, single experiment or average of two or more, read-out: MCF-7 ER degradation IC50; for ER degradation ≥ 90% at 0.3 μM: ER degradation by fulvestrant at 0.3 μM is defined as 100%
T2 construct: endogenous in cells; host or cells: MCF-7
T2 sequence (P03372 1-595): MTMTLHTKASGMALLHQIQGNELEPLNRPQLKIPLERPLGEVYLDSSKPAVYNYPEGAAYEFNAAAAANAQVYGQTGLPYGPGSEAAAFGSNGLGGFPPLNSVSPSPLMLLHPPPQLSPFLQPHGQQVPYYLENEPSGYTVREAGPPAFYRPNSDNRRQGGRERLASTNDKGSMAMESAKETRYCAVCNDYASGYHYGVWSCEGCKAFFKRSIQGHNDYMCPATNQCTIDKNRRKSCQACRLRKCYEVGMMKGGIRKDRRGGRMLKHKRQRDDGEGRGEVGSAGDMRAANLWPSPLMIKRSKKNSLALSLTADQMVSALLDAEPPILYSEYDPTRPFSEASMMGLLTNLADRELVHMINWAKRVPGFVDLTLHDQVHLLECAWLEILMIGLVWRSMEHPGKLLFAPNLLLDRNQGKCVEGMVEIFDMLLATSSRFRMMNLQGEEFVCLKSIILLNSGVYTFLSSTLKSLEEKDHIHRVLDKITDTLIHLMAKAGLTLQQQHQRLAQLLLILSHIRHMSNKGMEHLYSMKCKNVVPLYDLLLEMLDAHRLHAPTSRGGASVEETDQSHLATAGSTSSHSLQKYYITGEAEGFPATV
In short: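 MCF-7 human ductal carcinoma breast cells were seeded at 3.75×10^4 cells per mL (40 μL per well) in 384 well plates with phenol red free DMEM containing 2 mM L-Glutamine and 5% (v/v) Charcoal/Dextran treated foetal calf serum. After overnight culture, compounds were acoustically dispensed, incubated 18-22 hours, then cells were formaldehyde-fixed and immunostained for ERα.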

| Structure (SMILES) | IC50 [1] [nM] | DC50 [2] [nM] | ER degradation ≥ 90% at 0.3 μM [2] |
| --- | --- | --- | --- |
| Cc1ncsc1-c1ccc(CNC(=O)[C@@H]2C[C@@H](O)CN2C(=O)[C@@H](NC(=O)COCCCCCN2CC(Oc3cc(F)c([C@@H]4c5[nH]c6ccccc6c5C[C@@H](C)N4CC(C)(C)F)c(F)c3)C2)C(C)(C)C)cc1 [Example 46, (2S,4R)-1-((S)-2-(2-((5-(3-(3,5-difluoro-4-((1R,3R)-2-(2-fluoro-2-methylpropyl)-3-methyl-2,3,4,9-tetrahydro-1H-pyrido[3,4-b]indol-1-yl)phenoxy)azetidin-1-yl)pentyl)oxy)acetamido)-3,3-dimethylbutanoyl)-4-hydroxy-N-(4-(4-methylthiazol-5-yl)benzyl)pyrrolidine-2-carboxamide] | 0.8 | 2 | – |
| Cc1ncsc1-c1ccc(CNC(=O)[C@@H]2C[C@@H](O)CN2C(=O)[C@@H](NC(=O)CCCCN(C)CCN(C)CCOc2cc(F)c([C@@H]3c4[nH]c5ccccc5c4C[C@@H](C)N3CC(C)(C)F)c(F)c2)C(C)(C)C)cc1 [Example 108, (2S,4R)-1-((S)-2-(5-((2-((2-(3,5-difluoro-4-((1R,3R)-2-(2-fluoro-2-methylpropyl)-3-methyl-2,3,4,9-tetrahydro-1H-pyrido[3,4-b]indol-1-yl)phenoxy)ethyl)(methyl)amino)ethyl)(methyl)amino)pentanamido)-3,3-dimethylbutanoyl)-4-hydroxy-N-(4-(4-methylthiazol-5-yl)benzyl)pyrrolidine-2-carboxamide] | 0.6 | 1.1 | – |
| Cc1ncsc1-c1ccc(CNC(=O)[C@@H]2C[C@@H](O)CN2C(=O)[C@@H](NC(=O)COC2CCN(CCCNC(=O)/C=C/c3cc(F)c([C@@H]4c5[nH]c6ccccc6c5C[C@@H](C)N4CC(C)(C)F)c(F)c3)CC2)C(C)(C)C)cc1 [Example 65, (2S,4R)-1-((S)-2-(2-((1-(3-((E)-3-(3,5-difluoro-4-((1R,3R)-2-(2-fluoro-2-methylpropyl)-3-methyl-2,3,4,9-tetrahydro-1H-pyrido[3,4-b]indol-1-yl)phenyl)acrylamido)propyl)piperidin-4-yl)oxy)acetamido)-3,3-dimethylbutanoyl)-4-hydroxy-N-(4-(4-methylthiazol-5-yl)benzyl)pyrrolidine-2-carboxamide, Trifluoroacetic Acid] | 1.1 | 4.5 | – |
| Cc1ncsc1-c1ccc(CNC(=O)[C@@H]2C[C@@H](O)CN2C(=O)[C@@H](NC(=O)COCCOCCOc2cc(F)c([C@@H]3c4[nH]c5ccccc5c4C[C@@H](C)N3CC(C)(C)F)c(F)c2)C(C)(C)C)cc1 [Example 39, (2S,4R)-1-((S)-2-(2-(2-(2-(3,5-difluoro-4-((R,3R)-2-(2-fluoro-2-methylpropyl)-3-methyl-2,3,4,9-tetrahydro-1H-pyrido[3,4-b]indol-1-yl)phenoxy)ethoxy)ethoxy)acetamido)-3,3-dimethylbutanoyl)-4-hydroxy-N-(4-(4-methylthiazol-5-yl)benzyl)pyrrolidine-2-carboxamide] | 0.7 | – | • |
| Cc1ncsc1-c1ccc(CNC(=O)[C@@H]2C[C@@H](O)CN2C(=O)[C@@H](NC(=O)COCCCOCCCOc2cc(F)c([C@@H]3c4[nH]c5ccccc5c4C[C@@H](C)N3CC(C)(C)F)c(F)c2)C(C)(C)C)cc1 [Example 72, (2S,4R)-1-((S)-2-(2-(3-(3-(3,5-Difluoro-4-((1R,3R)-2-(2-fluoro-2-methylpropyl)-3-methyl-2,3,4,9-tetrahydro-1H-pyrido[3,4-b]indol-1-yl)phenoxy)propoxy)propoxy)acetamido)-3,3-dimethylbutanoyl)-4-hydroxy-N-(4-(4-methylthiazol-5-yl)benzyl)pyrrolidine-2-carboxamide] | 0.6 | – | •• |
